{"source": "patent US11013780B2", "about": "“Methods of treating female infertility” (Myovant Sciences GmbH, priority 2016, dated 2021)", "key": {"serum LH and FSH": {"system": "serum LH and FSH", "assay": "Single dose pharmacodynamics (LH, FSH), Japanese men", "type": "in vivo, human", "conditions": "single dose 0.001 to 0.5 mg", "procedure": "In the phase 1 clinical study of API-MA, subjects enrolled in the first seven cohorts received single SC bolus doses of 0.001, 0.004, 0.01, 0.04, 0.1, 0.25 or 0.5 mg of API-MA or placebo. Subjects enrolled in the eighth and ninth cohorts received single SC infusion doses of 0.25 or 0.5 mg of API-MA or placebo. The pharmacodynamics of the following hormones were assessed: LH, FSH, dihydroepiandrosterone sulfate (DHEA-S), growth hormone (GH), prolactin (PRL), thyroid-stimulating hormone (TSH), and adrenocorticotropic hormone (ACTH). The pharmacodynamic analysis set consisted of 37 subjects (bolus cohorts: 29; infusion cohorts: 8). […] In addition, blood specimens were collected for the measurement of LH and FSH on the day prior to dosing with API-MA. The time courses of mean serum LH concentrations following a single SC bolus of API-MA at doses ranging from 0.001 mg to 0.5 mg are shown in FIG. 6. The LH concentrations peaked between 12 and 24 hours and generally returned to baseline by 72 hours postdose. The magnitudes and durations of the LH concentration increases were similar across the dose range, 0.001 to 0.5 mg. The LH time courses were similar following a single 2-hour SC infusion of API-MA (data not shown)."}, "[1]": {"assay": "In vitro distribution into blood cells, humans", "type": "in vitro ADME", "procedure": "The in vitro distribution ratios of [^14C]API-MA into the blood cells at the concentrations of 0.01, 0.1, 1, and 10 μg/mL API-FB (free form) were 7.8%, 8.0%, 7.1%, and 4.8% for rats, 2.4%, 2.0%, 1.6%, and 1.2% for dogs, and 2.0%, 0.0%, 0.0%, and 0.5% for humans, respectively. […] The in vitro plasma protein binding ratios of [^14C]API-FB in rats, dogs, monkeys, and humans were determined by the ultracentrifugation method. In addition, the protein binding to human serum albumin (HSA), α1-acid glycoprotein (AGP), and HSA/AGP was investigated. […] In rats and dogs, a slight decrease in the binding ratio at the concentration range between 0.1 and 1.0 μg/mL API-FB was observed. In monkeys and humans, the binding was independent of the drug concentrations from 0.01 to 10 μg/mL API-FB."}, "[2]": {"assay": "Tissue distribution and excretion of radioactivity in rats", "type": "in vivo", "procedure": "The concentrations of the radioactivity in the tissues of male albino and pigmented rats were investigated after a single IV administration of [^14C]API-MA at 1.049 mg/kg (1 mg/kg API-FB). […] The radioactivity, measured in albino rats, was rapidly eliminated from all of the tissues after IV administration of API-MA.\nThe urinary, fecal, biliary, and expiratory excretion of the dosed radioactivity was investigated after a single SC or IV administration of [^14C]API-MA at 1.049 mg/kg (1 mg/kg API-FB) to male Sprague-Dawley rats in two studies."}, "CYP1A2": {"biological_target": "T1, CYP1A2 (Homo sapiens, UniProt P05177)", "T1 sequence (P05177 1-516)": "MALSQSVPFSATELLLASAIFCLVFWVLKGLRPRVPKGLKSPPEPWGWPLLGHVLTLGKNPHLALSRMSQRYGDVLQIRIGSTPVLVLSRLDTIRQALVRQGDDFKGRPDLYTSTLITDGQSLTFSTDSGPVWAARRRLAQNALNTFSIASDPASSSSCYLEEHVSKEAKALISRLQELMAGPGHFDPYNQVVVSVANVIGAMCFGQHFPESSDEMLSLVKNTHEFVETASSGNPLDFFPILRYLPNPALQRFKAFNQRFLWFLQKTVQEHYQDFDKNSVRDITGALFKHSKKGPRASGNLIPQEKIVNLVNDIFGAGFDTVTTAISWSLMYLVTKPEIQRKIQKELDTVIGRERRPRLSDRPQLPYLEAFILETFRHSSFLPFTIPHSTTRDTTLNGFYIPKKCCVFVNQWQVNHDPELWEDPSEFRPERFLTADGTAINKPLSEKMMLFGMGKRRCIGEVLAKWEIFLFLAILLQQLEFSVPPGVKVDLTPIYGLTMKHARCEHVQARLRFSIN", "assay": "Inhibition of recombinant CYP1A2", "type": "in vitro ADME"}, "[3]": {"assay": "1-month depot PK, prostate cancer patients", "type": "in vivo, human", "conditions": "for AUC(0-t) / Cmax / Tmax: male, human, plasma; for AUC(0-t): sc; for AUC(0-t) / Cmax / Tmax / Tlqc: prostate cancer patients; for AUC(0-t) / Cmax / Tlqc: geometric mean; for Tmax: read-out: Tmax (median)", "procedure": "Another study enrolled prostate cancer patients who had completed their primary treatment for prostate cancer at least 6 months prior to screening and were either on GnRH therapy or were potential future candidates for GnRH therapy. Nine patients were enrolled, three in each dose group (6, 12, and 24 mg). All were white men. Patients received API-MA as a single 1-month depot SC injection into the abdomen that was intended to initiate both a high-burst release of API-MA and rapid stimulation of hypothalamic-pituitary-gonadal-axis, and was expected to suppress testosterone. Overall, 4 of 9 patients received concomitant GnRH therapy."}, "[4]": {"conditions": "rats, IV 1 mg/kg API-FB, 24 hours postdose, first study"}, "[5]": {"conditions": "rats, IV 1 mg/kg API-FB, 48 hours postdose, second study"}, "[6]": {"conditions": "rats, SC 1 mg/kg API-FB, 24 hours postdose, first study"}, "[7]": {"conditions": "rats, SC 1 mg/kg API-FB, 48 hours postdose, second study"}}, "note": "Where two headings read alike, the source gives them in different places. Where a SMILES comes first, the peptide text is derived from it. [ ]: non-standard residue; d: D form. Arg(Me) = CNC(=N)NCCC[C@H](N)C(=O)O; Hyp = O=C(O)[C@@H]1C[C@@H](O)CN1; azaGly = NNC(=O)O"}
{"smiles": "CC(=O)O.CNC(=N)NCCC[C@H](NC(=O)[C@H](CC(C)C)NC(=O)NNC(=O)[C@H](Cc1ccccc1)NC(=O)[C@@H](NC(=O)[C@H](CC(N)=O)NC(=O)[C@@H]1C[C@@H](O)CN1C(=O)[C@@H](Cc1ccc(O)cc1)NC(C)=O)[C@@H](C)O)C(=O)N[C@@H](Cc1c[nH]c2ccccc12)C(N)=O", "note": "[API-MA, 2-(N-Acetyl-D-tyrosyl-trans-4-hydroxy-L-prolyl-Lasparaginyl-L-threonyl-L-phenylalanyl)-hydrazinocarbonyl-L-leucyl-Nω-methyl-L-arginyl-L-tryptophanamide monoacetate] (Ac-[dY][Hyp]NTF[azaGly]L[Arg(Me)]W-NH2)", "values": [{"measurement": "Time of FSH return to baseline / predose level", "setting": "serum LH and FSH", "result": "≤ 72", "unit": "h"}, {"measurement": "Time of LH return to baseline", "setting": "serum LH and FSH", "result": "≤ 72", "unit": "h"}, {"measurement": "Distribution ratio into blood cells", "setting": "[1]; 0.01 μg/mL API-FB", "result": 2.0, "unit": "%"}, {"measurement": "Distribution ratio into blood cells", "setting": "[1]; 0.1 μg/mL API-FB", "result": 0.0, "unit": "%"}, {"measurement": "Distribution ratio into blood cells", "setting": "[1]; 1 μg/mL API-FB", "result": 0.0, "unit": "%"}, {"measurement": "Distribution ratio into blood cells", "setting": "[1]; 10 μg/mL API-FB", "result": 0.5, "unit": "%"}, {"measurement": "Tissue distribution of radioactivity", "setting": "[2]; male albino and pigmented rats, single IV 1 mg/kg API-FB", "result": "distributed widely into the tissues"}, {"measurement": "Affinity for melanin in vivo", "setting": "[2]; pigmented rats, single IV 1 mg/kg API-FB", "result": "little affinity for melanin in vivo"}, {"measurement": "Excretion of radioactivity in bile", "setting": "[2]; [4]", "result": 20.7, "unit": "%"}, {"measurement": "Excretion of radioactivity in feces", "setting": "[2]; [4]", "result": 0.3, "unit": "%"}, {"measurement": "Excretion of radioactivity in urine", "setting": "[2]; [4]", "result": 76.6, "unit": "%"}, {"measurement": "Excretion of radioactivity in feces", "setting": "[2]; [5]", "result": 28.2, "unit": "%"}, {"measurement": "Excretion of radioactivity in urine", "setting": "[2]; [5]", "result": 70.0, "unit": "%"}, {"measurement": "Excretion of radioactivity in bile", "setting": "[2]; [6]", "result": 15.5, "unit": "%"}, {"measurement": "Excretion of radioactivity in feces", "setting": "[2]; [6]", "result": 0.2, "unit": "%"}, {"measurement": "Excretion of radioactivity in urine", "setting": "[2]; [6]", "result": 84.7, "unit": "%"}, {"measurement": "Excretion of radioactivity in feces", "setting": "[2]; [7]", "result": 20.4, "unit": "%"}, {"measurement": "Excretion of radioactivity in urine", "setting": "[2]; [7]", "result": 78.1, "unit": "%"}, {"measurement": "Excretion via expiration", "setting": "[2]; rats, SC or IV 1 mg/kg API-FB, second study", "result": "minimal"}, {"measurement": "IC50", "setting": "CYP1A2", "result": "> 7.78", "unit": "nM"}, {"measurement": "Detectability of API-MA in plasma", "setting": "[3]; 1-month depot 6, 12 or 24 mg, all cases", "result": "not detectable by 8 weeks postdose"}, {"measurement": "AUC(0-24) as share of AUC(0-tlqc)", "setting": "[3]; 1-month depot 6, 12 or 24 mg, burst phase", "result": "over 60%"}, {"measurement": "AUC(0-t)", "setting": "[3]; 6 mg/month, 1-month depot SC 6 mg/month, read-out: AUC (0-24) (converted)", "result": 79.6, "unit": "ng·h/mL"}, {"measurement": "AUC(0-t)", "setting": "[3]; 6 mg/month, 1-month depot SC 6 mg/month, read-out: AUC (0-29 d) (converted)", "result": 104, "unit": "ng·h/mL"}, {"measurement": "AUC(0-t)", "setting": "[3]; 6 mg/month, 1-month depot SC 6 mg/month, read-out: AUC (0-tlqc) (converted)", "result": 119, "unit": "ng·h/mL"}, {"measurement": "AUC(0-t)", "setting": "[3]; 12 mg/month, 1-month depot SC 12 mg/month, read-out: AUC (0-24) (converted)", "result": 119, "unit": "ng·h/mL"}, {"measurement": "AUC(0-t)", "setting": "[3]; 12 mg/month, 1-month depot SC 12 mg/month, read-out: AUC (0-29 d) (converted)", "result": 138, "unit": "ng·h/mL"}, {"measurement": "AUC(0-t)", "setting": "[3]; 12 mg/month, 1-month depot SC 12 mg/month, read-out: AUC (0-tlqc) (converted)", "result": 158, "unit": "ng·h/mL"}, {"measurement": "AUC(0-t)", "setting": "[3]; 24 mg/month, 1-month depot SC 24 mg/month, read-out: AUC (0-24) (converted)", "result": 179, "unit": "ng·h/mL"}, {"measurement": "AUC(0-t)", "setting": "[3]; 24 mg/month, 1-month depot SC 24 mg/month, read-out: AUC (0-29 d) (converted)", "result": 209, "unit": "ng·h/mL"}, {"measurement": "AUC(0-t)", "setting": "[3]; 24 mg/month, 1-month depot SC 24 mg/month, read-out: AUC (0-tlqc) (converted)", "result": 239, "unit": "ng·h/mL"}, {"measurement": "Cmax", "setting": "[3]; 1-month depot SC 6 mg/month", "result": 16.5, "unit": "ng/mL"}, {"measurement": "Tmax", "setting": "[3]; 1-month depot SC 6 mg/month", "result": 2, "unit": "h"}, {"measurement": "Cmax", "setting": "[3]; 1-month depot SC 12 mg/month", "result": 14.4, "unit": "ng/mL"}, {"measurement": "Tmax", "setting": "[3]; 1-month depot SC 12 mg/month", "result": 2.05, "unit": "h"}, {"measurement": "Cmax", "setting": "[3]; 1-month depot SC 24 mg/month", "result": 25.5, "unit": "ng/mL"}, {"measurement": "Tmax", "setting": "[3]; 1-month depot SC 24 mg/month", "result": 2.05, "unit": "h"}, {"measurement": "Tlqc", "setting": "[3]; 1-month depot SC 6 mg/month", "result": 42.9, "unit": "h"}, {"measurement": "Tlqc", "setting": "[3]; 1-month depot SC 12 mg/month", "result": 41.5, "unit": "h"}, {"measurement": "Tlqc", "setting": "[3]; 1-month depot SC 24 mg/month", "result": 47.2, "unit": "h"}]}
